From US6787569B1, “Therapeutic guanidines” (Cambridge NeuroScience, Inc., priority 1994, dated 2004)

Columns and labels:
[1] = tested on: depolarization-induced 3H-glutamate release from brain nerve terminals; assay: Inhibition of 3H-glutamate release, high [K+] depolarization, rapid superfusion of synaptosomes; format: biochemical; details: rat brain synaptosomes; for % Inhibition of ^3H-Glu Rel @ 0.3 μM: 0.3 μM compound; for % Inhibition of ^3H-Glu Rel @ 1 μM: 1 μM compound; for % Inhibition of ^3H-Glu Rel @ 0.1 μM: 0.1 μM compound
[2] = tested on: audiogenic seizures in DBA/2 mice; assay: In vivo anticonvulsant activity in the DBA/2 mouse model (audiogenic seizures); details: 30 minutes prior to auditory stimulus
Experimental: Compounds were tested for their effectiveness in preventing seizures in DBA/2 mice which have a unique sensitivity to auditory stimulation. Exposure to loud high-frequency sounds can trigger seizure activity in these animals. This sensitivity develops from postnatal day 12 and peaks around day 21 and slowly diminishes as the animals mature. The unusual response to auditory stimulation in this strain of mouse is believed to be due to a combination of early myelination (causing an unusually low excitatory threshold) and delayed development of inhibitory mechanisms. Glutamate, the predominant excitatory neurotransmitter, has been implicated in this response. Blockade of glutamate receptors of the NMDA and AMPA subtypes, prevents audiogenic seizures in these mice. Compounds that block the release of glutamate should similarly act to prevent seizure activity, and may be therapeutic in other neurologic disorders such as stroke, which also involves glutamate-mediated damage.
Mice were injected intraperitoneally with the compound specified in Table V below or with vehicle control, 30 minutes prior to being placed in a bell jar and turning on the auditory stimulus (12 KHz sine wave at 110-120 db). Administered doses are specified in Table V as milligram of compound per kilogram bodyweight of mouse. The auditory stimulus was left on for 60 seconds and mice reactions were timed and recorded.
Percentage inhibition was determined with reference to vehicle controls.

For `CCCCc1ccc(NC(=N)Nc2ccc(CCCC)cc2)cc1.CS(=O)(=O)O` [Example 37, N,N′-Bis(4-n-butylphenyl)guanidine.mesylate], the “% Inhibition of ^3H-Glu Rel @ 0.3 μM” value [1] was 57%, the “% Inhibition of ^3H-Glu Rel @ 1 μM” value [1] was 100% and the “Audiogenic Response % Inhib.” value ([2]; 25 mg/kg intraperitoneally) was 82%. For the same molecule, the “Audiogenic Response % Inhib.” value ([2]; 40 mg/kg intraperitoneally) was 92%.
In the case of `CCC(C)c1ccc(N(Cc2ccc(C(C)(C)C)cc2)C(=N)NN2CCSCC2)cc1.Cl` (centres unmarked) [Example 73, N-(4-sec-Butylphenyl)-N-(4-t-butylbenzyl)-N′-(4-thiomorpholinyl)guanidine.HCl], the “% Inhibition of ^3H-Glu Rel @ 1 μM” value [1] is reported as 59%, the “Audiogenic Response % Inhib.” value ([2]; 20 mg/kg intraperitoneally) is reported as 23% and the “Audiogenic Response % Inhib.” value ([2]; 40 mg/kg intraperitoneally) is reported as 89%.
With `CN(C(=N)N(C)c1ccc(C(C)(C)C)cc1)c1ccc(C(C)(C)C)cc1.Cl` [Example 102, N,N′-Bis-(4-tert-butylphenyl)-N,N′-dimethylguanidine.HCl] the “% Inhibition of ^3H-Glu Rel @ 0.1 μM” value [1] was 18% and the “% Inhibition of ^3H-Glu Rel @ 0.3 μM” value [1] was 73%.
With `CCCCc1ccc(NC(=N)N(CCCC)c2ccc(CCCC)cc2)cc1.Cl` [Example 105, N,N′-Bis-(4-butylphenyl)-N-butylguanidine.HCl] the “% Inhibition of ^3H-Glu Rel @ 0.1 μM” value [1] was 24% and the “% Inhibition of ^3H-Glu Rel @ 0.3 μM” value [1] was 86%.
`CCCCOc1ccc(NC(=N)Nc2ccc(C(C)(C)C)cc2)cc1OCCCC.O=C(O)C(=O)O` [Example 107, N-(3,4-Bis-butyloxyphenyl)-N′-(4-tert-butylphenyl)guanidine.oxalate] was tested, and the “% Inhibition of ^3H-Glu Rel @ 0.3 μM” value [1] was 34%.
In the case of `Br.CCCCOc1cc(NC(=N)Nc2ccc(OC)c(OCCCC)c2)ccc1OC` [Example 109, N,N′-Bis-((3-butoxy-4-methoxy)phenyl)guanidine.HBr], the “% Inhibition of ^3H-Glu Rel @ 0.3 μM” value [1] is reported as 86%.
`Br.N=C(Nc1ccc2c(c1)CCCC2)Nc1ccc2c(c1)CCCC2` [Example 111, N,N′-Bis-(6-tetralinyl)guanidine.HBr] was tested, and the “% Inhibition of ^3H-Glu Rel @ 0.3 μM” value [1] was 61%.
`CN(C(=N)Nc1ccc(OCc2ccccc2)cc1)c1ccc(OCc2ccccc2)cc1.CS(=O)(=O)O` [Example 132, N,N′-Bis(4-benzyloxyphenyl)-N′-methylguanidine.mesylate] was tested, and the “% Inhibition of ^3H-Glu Rel @ 0.3 μM” value [1] was 22%.
`Br.CCCCOc1ccc(NC(=N)Nc2ccc(OCCCC)cc2)cc1` [Example 137, N,N′-Bis(4-butoxyphenyl)guanidine.HBr] was tested, and the “Audiogenic Response % Inhib.” value ([2]; 20 mg/kg intraperitoneally) was 60% and the “Audiogenic Response % Inhib.” value ([2]; 40 mg/kg intraperitoneally) was 82%.
For `Br.N=C(Nc1ccc(Oc2ccccc2)cc1)Nc1ccc(Oc2ccccc2)cc1` [Example 138, N,N′-Bis(4-phenoxyphenyl)guanidine.HBr], the “% Inhibition of ^3H-Glu Rel @ 0.3 μM” value [1] was 57%.
In the case of `CS(=O)(=O)O.N=C(Nc1ccc(N=Nc2ccccc2)cc1)Nc1cccc(OCc2ccccc2)c1` [Example 140, N-(3-Benzyloxyphenyl)-N′-(4-phenylazophenyl)guanidine.mesylate], the “% Inhibition of ^3H-Glu Rel @ 0.3 μM” value [1] is reported as 44%.
`CN(C(=N)Nc1cccc(OCc2ccccc2)c1)c1cccc(OCc2ccccc2)c1.Cl` [Example 141, N,N′-Bis(3-benzyloxyphenyl)-N′-methylguanidine.HCl] was tested, and the “% Inhibition of ^3H-Glu Rel @ 0.3 μM” value [1] was 67%.
For `CN(C(=N)Nc1cccc(OCc2ccccc2)c1)c1ccc(OCc2ccccc2)cc1` [N-(3-benzyloxyphenyl)-N′-(4-benzyloxyphenyl)-N′-methylguanidine], the “% Inhibition of ^3H-Glu Rel @ 0.3 μM” value [1] was 55%.
For `N=C(Nc1ccc(OCc2ccccc2)cc1)Nc1ccc(SCc2ccccc2)cc1` [N-(4-benzyloxyphenyl)-N′-(4-benzylthiophenyl)guanidine], the “% Inhibition of ^3H-Glu Rel @ 0.3 μM” value [1] was 81%.
With `N=C(Nc1ccc(OCc2ccccc2)cc1)Nc1ccc(Oc2ccccc2)cc1` [N-(4-benzyloxyphenyl)-N′-(4-phenoxyphenyl)guanidine] the “Audiogenic Response % Inhib.” value ([2]; 20 mg/kg intraperitoneally) was 16% and the “Audiogenic Response % Inhib.” value ([2]; 40 mg/kg intraperitoneally) was 93%.
For “N-(4-sec-Butylphenyl)-N-(4-tert-butylbenzyl)-N′-piperidinylguanidine.HCl [Example 74]”, the “% Inhibition of ^3H-Glu Rel @ 0.3 μM” value [1] was 21% and the “% Inhibition of ^3H-Glu Rel @ 1 μM” value [1] was 100%.
For “N-(5-Acenaphthyl)-N′-((4-tert-butylphenyl)-(4-sec-butylphenyl)-N′-methylguanidine.HCl [Example 60]”, the “% Inhibition of ^3H-Glu Rel @ 3 μM” value ([1]; 3 μM compound) was 32%.
For “N-(5-Acenaphthyl)-N′-(indolinyl)guanidine.mesylate [Example 29]”, the “Audiogenic Response % Inhib.” value ([2]; 20 mg/kg intraperitoneally) was 42% and the “Audiogenic Response % Inhib.” value ([2]; 40 mg/kg intraperitoneally) was 81%.
